Data on six compounds can be found in patent US6180666A, “Use of gallic acid esters to increase bioavailability of orally administered pharmaceutical compounds” (priority 1999, dated 2001).

Data set [1] relates to CYP3A. Nature of the data set: Inhibition of CYP3A-mediated metabolism of amiodarone, buspirone and nifedipine in human liver microsomes (Example 2). The protocol: (§1) Microsomal pellets were prepared from the homogenate using standard differential centrifugation procedures (Guengerich, Analysis and characterization of enzymes in Principles and Methods of Toxicology, A. W. Hayes (ed.), Raven Press, New York. pp. 777-814 (1989)) and were stored at -80° C. in Tris-acetate buffer, pH 7.4, containing 20% w/v glycerol. Microsomes were diluted in 100 mM potassium phosphate buffer, pH 7.4, for use in metabolic incubations. Microsomal protein and CYP content of the human liver microsomes were determined using methods of Bradford (Bradford, M. M. A rapid and sensitive method for the quantitation of microgram quantities of protein utilizing the principles of protein-dye binding. Anal. Biochem. 72:248-254 (1976)) and Omura and Sato (Omura, T. et. al. The carbon monoxide-binding pigment of liver microsomes II. Solubilization, purification and properties. J. Biol. Chem. 239:2370-2378 (1964)), respectively.
(§2) The ability of propyl gallate at various concentrations to inhibit metabolism for three representative drugs through inhibition of the cytochrome P450 mechanism was tested. Human liver microsomes were prepared and each of three drugs, amiodarone, buspirone, or nifedipine, were incubated with the microsomes in the presence of propyl gallate or a known inhibitor of CYP3A metabolism. Metabolism in the presence of propyl gallate or known CYP3A inhibitor was compared to a control treated only with the solvent in which the inhibitor was dissolved.
(§3) Clin. Pharmacol. Ther. 64: 655-60 (1998)) by human liver microsomes was tested. The microsomes were prepared as in Example 1.
(§4) The amiodarone was present in a concentration of 100 μM, the buspirone was in a concentration of 25 μM, and the nifedipine was present in a concentration of 25 μM. The propyl gallate was tested with each of these drugs at concentrations of 25, 50, and 100 μM.
(§5) The drug and optionally the inhibitor were preincubated with the microsomes at 1 nmol CYP/ml and 1 mM DETAPAC in 100 mM phosphate buffer, pH 7.4 for 5 minutes at 37° C. After the preincubation, metabolic reactions were started by the addition of 1 mM NADPH. Samples were taken at 1, 2, and 3 minutes after the start of the reaction and analyzed by HPLC. Disappearance of substrate and/or formation of metabolite were quantitated by comparison to standard curves.
(§6) The metabolism rates (nmol/ml/min) are the mean±standard deviation of three measurements.
(§7) ^a Formation rate of N-desethylamiodarone metabolite (nmol/ml/min)
(§8) ^b Buspirone disappearance (nmol/ml/min)
(§9) ^c Formation of nifedipine oxidation product
(§10) 2,6-dimethyl-4-(2-nitrophenyl)-3,5-pyridinedicarboxylic acid, dimethyl

For data set [2] the following is noted: Joint FAO/WHO Expert Committee, cited from earlier work; for temporary acceptable daily intake: 1/200 of no observed effect level, 90 day feeding studies in rats.
The target of data set [3] is T1, CYP3A (Homo sapiens, UniProt P08684). Nature of the data set: Inhibition of CYP3A-mediated nifedipine metabolism in human liver microsomes by gallic acid esters (Example 1). Particulars: for activity at 10 µM / activity at 25 µM / activity at 50 µM / activity at 100 µM / activity at 500 µM: read-out: Relative Nifedipine Oxidation Rate (± S.D.). Here is the method: The known CYP3A substrate nifedipine (Gonzalez, F. J., et al., Human P45OPCN1: sequence, chromosome localization, and direct evidence through cDNA expression that P45OPCN1 is nifedipine oxidase, DNA, 2:79-86 (1988)) was used as a test substrate for evaluating the potential of various gallic acid esters to inhibit CYP3A metabolism in a human liver microsome study.
as §1
In the experiments, 100 μM nifedipine and either 5 μl of a solution of one of the gallic acid esters (at a concentration indicated in Table 1) or 5 μl of solvent alone (control) were preincubated along with 0.1 mg/ml of the human liver microsomal proteins and 1 mM diethylenetriarninepentaacetic acid (DETAPAC) in 100 mM phosphate buffer, pH 7.4, for 5 minutes at 37°0 C. Metabolic reactions were started by addition of reduced β-nicotinamide adenine dinucleotide phosphate (NADPH) to give a final concentration of 1 mM and a final volume of 0.5 ml. Metabolic reactions were stopped after 3 minutes by vortex mixing with 0.2 ml of an extraction solvent of (94:6) acetonitrile:glacial acetic acid. Protein was precipitated by centrifugation (3000 rpm×10 minutes) and supernatants were analyzed for nifedipine and its oxidation product 2,6-dimethyl-4-(2-nitrophenyl)-3,5-pyridinedicarboxylic acid dimethyl ester by High Performance Liquid Chromatography (HPLC).
All experiments were conducted in triplicate and compared to incubations carried out without NADPH or without substrate. The data are the mean±standard deviation of three measurements.
^a Substrate and inhibitor were dissolved in acetonitrile except for
lauryl gallate which required methanol as vehicle.
^b Inhibition constant Ki determinations utilized 10, 20, 50 and
100 μM nifedipine substrate concentrations and experiments were run in
duplicate. Ki values were determined by regression analysis of rate
data using SigmaPlot V4.OS software (SPSS Inc., San Rafael, California).
On the technique in general: Liver microsomes are vesicles of endoplasmic reticulum, rich in cytochrome P450 enzymes.

Data set [4] concerns the target T1, CYP3A. Nature of the data set: Inhibition of CYP3A-mediated metabolism of amiodarone, buspirone and nifedipine in human liver microsomes (Example 2). The protocol: as §1, §2, §3, §4, §5, §6, §7, §8, §9, §10
Where [5] appears, read: inhibitor 100 μM, amiodarone 100 μM.
The mark [6] stands for this setting: read-out: Buspirone metabolism rate, % control.
[7] abbreviates: read-out: Nifedipine metabolism rate, % control.

Structures are written as SMILES. Read-outs that look alike come from different tables or passages of the source.

The term Ki denotes the dissociation constant of the complex between target and ligand, obtained from inhibition or displacement. The low end stands for tighter binding, the high end for weaker binding.

T1 sequence (P08684 2-503 limits assumed): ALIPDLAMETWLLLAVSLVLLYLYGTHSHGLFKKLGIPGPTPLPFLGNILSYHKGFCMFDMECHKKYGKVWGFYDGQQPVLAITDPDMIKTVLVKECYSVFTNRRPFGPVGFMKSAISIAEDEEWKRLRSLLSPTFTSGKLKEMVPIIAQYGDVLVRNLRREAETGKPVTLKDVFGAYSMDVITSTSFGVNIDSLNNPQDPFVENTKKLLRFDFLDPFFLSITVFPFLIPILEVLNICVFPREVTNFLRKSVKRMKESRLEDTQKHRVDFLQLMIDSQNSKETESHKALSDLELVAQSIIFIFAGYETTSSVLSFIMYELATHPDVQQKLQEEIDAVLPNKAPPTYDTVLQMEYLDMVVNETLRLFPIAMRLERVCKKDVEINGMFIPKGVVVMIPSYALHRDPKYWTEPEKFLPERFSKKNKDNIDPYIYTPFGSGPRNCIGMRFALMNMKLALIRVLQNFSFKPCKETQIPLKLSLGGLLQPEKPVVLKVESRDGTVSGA

As for `CC[C@H]1OC(=O)[C@H](C)[C@@H](O[C@H]2C[C@@](C)(OC)[C@@H](O)[C@H](C)O2)[C@H](C)[C@@H](O[C@@H]2O[C@H](C)C[C@H](N(C)C)[C@H]2O)[C@](C)(O)C[C@@H](C)C(=O)[C@H](C)[C@@H](O)[C@]1(C)O` [Erythromycin, reference compound], the “Mean ± SD metabolism rate, amiodarone (formation rate of N-desethylamiodarone)” value (from here on “Mean ± SD metabolism rate, amiodarone”) in the data set on CYP3A [1] (setting [5]) came out at 0.84 ± 0.07 nmol/mL/min.

Turning to `CC(=O)N1CCN(c2ccc(OCC3COC(Cn4ccnc4)(c4ccc(Cl)cc4Cl)O3)cc2)CC1` (centres unmarked) [Ketoconazole, reference compound], the “Amiodarone metabolism rate, % control” value in the data set on CYP3A [1] (inhibitor 1 μM, amiodarone 100 μM) is 4 % control.

For `CCCCCCCCCCCCOC(=O)c1cc(O)c(O)c(O)c1` [Lauryl gallate, lauryl gallate], in data set [2], the “temporary acceptable daily intake” value is on record as 0-0.05 mg/kg body weight. Also, at CYP3A [3], the activity at 10 µM came to 61%, the activity at 25 µM was determined as 31%, the activity at 50 µM amounted to 12.6% and the activity at 100 µM was 6.4%.

As to `COC(=O)c1cc(O)c(O)c(O)c1` [Methyl gallate, methyl gallate], at CYP3A [3], the activity at 100 µM was found to be 53% and the activity at 500 µM is 16%.

Take `CCCCCCCCOC(=O)c1cc(O)c(O)c(O)c1` [Octyl gallate, octyl gallate]: in data set [2], the “temporary acceptable daily intake” value was 0-0.1 mg/kg body weight. Moreover, at CYP3A [3], the “Inhibition of CYP3A-mediated metabolism (in words)” value was “especially good inhibitor of the metabolism at relatively low concentrations”, the Ki was determined as 5.2 ± 0.2 µM, the activity at 10 µM is 44% and the activity at 25 µM was 17.5%. In addition, at CYP3A [3], the activity at 50 µM was found to be 4.9% and the activity at 100 µM came out at 1.1%.

Consider `CCCOC(=O)c1cc(O)c(O)c(O)c1` [Propyl gallate, 3,4,5-trihydroxybenzoic acid, n-propyl ester], for which, on CYP3A [4] (setting [6]), the remaining activity at 25 µM worked out at 65%, the remaining activity at 50 µM is 42% and the remaining activity at 100 µM was determined as 29%. In addition, on CYP3A [4] (setting [7]), the remaining activity at 25 µM turned out to be 82%, the remaining activity at 50 µM is 54% and the remaining activity at 100 µM came to 33%. For the same compound, in the data set with CYP3A [1], the “Inhibition of CYP3A-mediated metabolism (in words)” value is on record as “effective inhibitor of CYP3A-mediated metabolism”; the “Inhibition of drug metabolism compared with known CYP3A inhibitors (in words)” value is “better at inhibiting drug metabolism than the established CYP3A inhibitors diltiazem, erythromycin, and verapamil”. Also, the “Mean ± SD metabolism rate, amiodarone” value in the data set on CYP3A [1] (inhibitor 25 μM, amiodarone 100 μM) amounted to 0.94 ± 0.02 nmol/mL/min. The “Mean ± SD metabolism rate, amiodarone” value in the data set with CYP3A [1] (inhibitor 50 μM, amiodarone 100 μM) is 0.55 ± 0.02 nmol/mL/min. Also, the “Mean ± SD metabolism rate, amiodarone” value in the data set with CYP3A [1] (setting [5]) turned out to be 0.32 ± 0.03 nmol/mL/min. Besides, in the data set on CYP3A [1] (microsomes, 25 µM), the “Amiodarone metabolism rate, % control” value amounted to 49 % control. In addition, the “Amiodarone metabolism rate, % control” value with CYP3A [1] (microsomes, 50 µM) stood at 28 % control. In the data set on CYP3A [1] (microsomes, 100 µM), the “Amiodarone metabolism rate, % control” value worked out at 17 % control. Further, the acceptable daily intake in data set [2] (1/100 of no observed effect level, 90 day feeding study in rats) is 0 to 1.4 mg/kg/day. Further, on CYP3A [3], affinity was put at a Ki of 64 ± 2 µM, the activity at 50 µM amounted to 59%, the activity at 100 µM amounted to 34% and the activity at 500 µM was 6.1%.
